{"source": "patent US20220016111A1", "about": "“Methods of Treating Inflammation” (The Walter and Eliza Hall Institute of Medical Research, priority 2018, published 2022)", "key": {"[1]": {"details": "in-vivo; cited from earlier work"}, "[2]": {"details": "in vivo, cited from earlier work"}, "EZH1 [3]": {"target": "T1, EZH1 (Homo sapiens, UniProt Q92800)", "T1 sequence (Q92800 whole entry, species assumed)": "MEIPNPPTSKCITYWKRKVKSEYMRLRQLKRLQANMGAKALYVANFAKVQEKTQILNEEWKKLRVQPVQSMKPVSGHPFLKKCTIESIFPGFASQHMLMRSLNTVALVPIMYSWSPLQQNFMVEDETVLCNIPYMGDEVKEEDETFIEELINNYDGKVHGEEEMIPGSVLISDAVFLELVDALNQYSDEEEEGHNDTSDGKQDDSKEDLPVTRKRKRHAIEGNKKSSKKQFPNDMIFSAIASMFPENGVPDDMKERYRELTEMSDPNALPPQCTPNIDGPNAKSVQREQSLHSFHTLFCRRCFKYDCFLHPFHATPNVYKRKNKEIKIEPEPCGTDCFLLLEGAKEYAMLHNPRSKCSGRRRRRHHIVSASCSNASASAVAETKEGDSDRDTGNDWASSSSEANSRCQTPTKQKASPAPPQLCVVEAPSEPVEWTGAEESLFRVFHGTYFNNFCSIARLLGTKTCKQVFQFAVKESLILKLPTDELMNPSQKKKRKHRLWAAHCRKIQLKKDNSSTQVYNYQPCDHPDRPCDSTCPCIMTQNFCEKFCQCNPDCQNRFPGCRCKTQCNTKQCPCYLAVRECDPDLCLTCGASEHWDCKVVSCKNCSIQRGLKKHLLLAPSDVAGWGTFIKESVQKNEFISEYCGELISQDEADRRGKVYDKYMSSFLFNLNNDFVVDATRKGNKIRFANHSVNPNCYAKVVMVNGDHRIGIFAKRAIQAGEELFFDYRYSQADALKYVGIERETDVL", "T1 sequence (O75530 whole entry partner, species assumed)": "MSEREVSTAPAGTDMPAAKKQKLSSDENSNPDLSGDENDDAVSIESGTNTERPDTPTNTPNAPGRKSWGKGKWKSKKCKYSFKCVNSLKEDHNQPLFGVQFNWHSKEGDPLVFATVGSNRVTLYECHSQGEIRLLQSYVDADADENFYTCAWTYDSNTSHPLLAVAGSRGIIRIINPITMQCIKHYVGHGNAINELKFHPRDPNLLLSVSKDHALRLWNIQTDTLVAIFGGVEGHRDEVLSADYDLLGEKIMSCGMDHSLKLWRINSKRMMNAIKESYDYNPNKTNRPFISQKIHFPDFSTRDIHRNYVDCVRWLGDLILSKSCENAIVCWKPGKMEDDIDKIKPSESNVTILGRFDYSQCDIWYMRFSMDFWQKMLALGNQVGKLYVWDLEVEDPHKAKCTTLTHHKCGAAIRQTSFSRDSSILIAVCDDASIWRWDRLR", "T1 sequence (Q15022 whole entry partner, species assumed)": "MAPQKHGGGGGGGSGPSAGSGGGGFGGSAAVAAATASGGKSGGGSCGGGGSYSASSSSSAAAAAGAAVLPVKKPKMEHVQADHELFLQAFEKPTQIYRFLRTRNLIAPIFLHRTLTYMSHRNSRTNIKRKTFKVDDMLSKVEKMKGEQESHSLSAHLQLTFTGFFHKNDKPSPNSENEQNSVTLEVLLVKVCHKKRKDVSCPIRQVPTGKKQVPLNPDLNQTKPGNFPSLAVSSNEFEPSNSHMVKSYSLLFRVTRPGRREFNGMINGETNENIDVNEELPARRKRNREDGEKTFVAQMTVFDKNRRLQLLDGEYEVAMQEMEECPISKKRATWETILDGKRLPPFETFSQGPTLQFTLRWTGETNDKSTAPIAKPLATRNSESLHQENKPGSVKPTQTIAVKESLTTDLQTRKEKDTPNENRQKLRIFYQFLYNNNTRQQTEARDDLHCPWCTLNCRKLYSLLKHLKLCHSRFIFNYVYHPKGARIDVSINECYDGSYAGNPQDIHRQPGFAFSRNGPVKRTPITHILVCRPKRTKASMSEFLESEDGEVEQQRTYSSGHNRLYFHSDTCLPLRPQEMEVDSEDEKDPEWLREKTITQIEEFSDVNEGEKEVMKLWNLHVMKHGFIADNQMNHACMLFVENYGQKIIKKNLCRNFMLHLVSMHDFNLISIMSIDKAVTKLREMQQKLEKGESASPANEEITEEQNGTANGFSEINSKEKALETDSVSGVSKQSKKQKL", "T1 sequence (Q09028 whole entry partner, species assumed)": "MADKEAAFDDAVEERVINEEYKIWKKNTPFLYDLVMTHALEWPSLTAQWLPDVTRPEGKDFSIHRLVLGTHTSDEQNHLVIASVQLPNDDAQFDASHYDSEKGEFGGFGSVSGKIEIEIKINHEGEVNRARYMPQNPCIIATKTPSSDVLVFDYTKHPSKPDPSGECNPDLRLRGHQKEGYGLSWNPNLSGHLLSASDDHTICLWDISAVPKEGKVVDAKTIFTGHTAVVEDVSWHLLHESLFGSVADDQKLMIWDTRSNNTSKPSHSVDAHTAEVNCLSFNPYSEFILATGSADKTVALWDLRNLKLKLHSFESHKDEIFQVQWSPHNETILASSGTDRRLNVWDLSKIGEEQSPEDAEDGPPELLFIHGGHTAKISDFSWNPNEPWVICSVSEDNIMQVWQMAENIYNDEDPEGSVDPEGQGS", "details": "cited from earlier work"}, "[4]": {"system": "30 other histone or DNA methyltransferases", "details": "cited from earlier work"}, "H3K27 methylation": {"system": "H3K27 methylation", "details": "cited from earlier work"}, "[5]": {"system": "diffused large B-cell lymphomas cells carrying the Y641 mutations", "details": "cited from earlier work"}, "[6]": {"system": "wild type and mutant forms of EZH2", "details": "cited from earlier work"}, "EZH1 [7]": {"target": "T1, EZH1", "details": "cited from earlier work", "remark": "listed apart in the source"}, "[8]": {"system": "activated C57BL/6 mouse CD4+ T cells", "test": "Survival/expansion of activated CD4+ T cells in vitro", "type": "cell-based", "details": "anti-CD3 and anti-CD28 activation, three days", "excerpt": "(§1) Mean and SEM is shown. […] Scale bar represents 100 μm. e) Quantification of histological analysis showing the frequency of PAS^+ cells and the Inflammation Score. Mean and SEM are shown for n=8 per group. […] Mean and SEM are shown for n=5 (Vehicle), n=4 (each GSK dose).\nNave CD4^+ T cells were isolated from a single-cell suspension from mouse spleen by MACS isolation kit (Miltenyi Biotech). Cells were labelled with CellTrace™ Violet (CTV, Thermo Fisher) then activated in 96 well plates pre-coated with anti-CD3 (10 μg/mL) and anti-CD28 (5 μg/mL) in RPMI-1640 medium supplemented with 10% heat-inactivated fetal bovine serum, 2 mM GlutaMAX™ and 0.05 mM β-mercaptoethanol."}, "tumours": {"system": "tumours", "details": "mouse models; cited from earlier work"}, "[9]": {"system": "established allergic inflammation", "test": "Established OVA inflammation, three doses of GSK126", "type": "in vivo, C57BL/6 mice", "method": "Data shown representative of n=5 OVA/Vehicle (Veh) and OVA/GSK groups, n=2 unchallenged controls (Con) shown for reference purposes. c) Quantification of b. Mean and SEM shown. Group sizes as in b. […] Scale bar represents 100 μm. f) Quantification of PAS^+ cells and Inflammation Score. Mean and SEM shown. Group sizes as in b. Statistical analysis by 1-way ANOVA with Holm-Sidak post-hoc.\n(§2) Mice were immunized with an intraperitoneal injection of 200 μL Alum/OVA containing 20 μg low-endotoxin ovalbumin (Worthington) and 2.25 mg aluminium hydroxide (Sigma) in sterile PBS on day 0 and day 7. Mice were then rested for a minimum of 2 weeks and then challenged daily for 4 days with nebulized 2% (w/v) ovalbumin (Sigma) in PBS for 15 min. The day after the final challenge (or at a time-point described in the text), mice were sacrificed and bronchoalveolar lavage (250 μL×2 with sterile PBS) was performed from which cellular infiltrate was analysed by flow cytometry and acellular BAL fluid was analysed by Bio-Plex Pro™ cytokine assay (Biorad). Lung tissue was then fixed by inserting 1 mL of 10% formalin via the trachea into the lungs leaving to set in situ for at least 30 min. The mid-section of the left lobe was then excised and placed in liquid formalin for a further 24 h prior to paraffin embedding, sectioning and staining with Periodic acid-Schiff (PAS) and Haematoxylin and Eosin (H&E) stains. Stained slides were imaged using an Aperio Digital Pathology Slide Scanner and quantitated by counting PAS positive epithelial cells and scoring leukocyte infiltration in H&E stained sections according to the scoring chart (FIG. 16). Scores from at least five 20× magnification fields of each stain were averaged for each mouse.\nThe therapeutic regime was then extended to three doses (day 5, 8 and 10) after establishing inflammation by OVA challenge on days 1-4, and airway inflammation assessed on day 11 (FIG. 15a)."}, "[10]": {"system": "20 other methyltransferases", "details": "cited from earlier work"}, "[11]": {"system": "established allergic inflammation", "test": "Established OVA inflammation, single dose of GSK126", "type": "in vivo, C57BL/6 mice", "details": "single dose 150 mg/kg oral gavage on day 5, assessed 3 days later", "method": "CD4+ and CD8+ T cells were first gated by CD11b−GR1−TCRβ+. Neutrophils were gated by CD11bHiGR1Hi. Eosinophils were gated by CD11b+CD11c−SiglecF+. Mean and SEM are shown. n=2 Alum-sensitized vehicle treated controls shown for comparative purposes. OVA-sensitized groups were statistically compared by Student's t test.\nas §2, with “The mid-section of the left lobe was then excised and placed in liquid formalin for a further 24 h prior to paraffin embedding, sectioning and staining with Periodic acid-Schiff (PAS) and Haematoxylin and Eosin (H&E) stains.” left out, “Scores from at least five 20× magnification fields of each stain were averaged for each mouse.” left out"}, "[12]": {"system": "OVA-induced allergic inflammation", "type": "in vivo, C57BL/6 mice", "method": "as §1\nMean and SEM as well as individual data points are shown. n=4 each group. Data was statistically tested by 1-way ANOVA with Dunnet's post-hoc test.\nas §2\nLung function was assessed by the forced oscillation technique using a FlexiVent system with FX1 module (Scireq, Montreal, Canada). Mice were anaesthetized with ketamine (150 mg/kg) and xylazine (15 mg/kg) then cannulated by tracheostomy with ligation. Baseline respiratory mechanics were recorded, followed by aerosolized saline then increasing doses of methacholine (MCh) (0.1-30 mg/mL). Respiratory impedance (Zrs) was measured and partitioned into airway and parenchymal components through fitting to the Constant Phase Model from which Newtonian resistance (Rn; equivalent to airway resistance) was calculated.\nTotal IgE and OVA-specific IgE were measured by enzyme-linked immunosorbent assay (ELISA). Briefly, 96 well plates were coated with either Rat anti-mouse IgE (to measure total IgE; Southern Biotech clone #23G2, cat #1130-01) or OVA protein (for OVA-specific IgE) in PBS overnight. Samples were diluted (total IgE 1:50-1:200 and OVA-specific IgE 1:50-1:100 based on pilot assays), and incubated in duplicate, prior to incubation with GAM Fc-specific polyclonal anti-IgE-HRP and colorimetric detection using TMB substrate (Thermo Scientific #34028), measuring absorbance at 450 nm. Absorbance values were converted to total IgE levels by reference to a mouse IgE anti-DNP (clone SPE-7) standard curve (0.1 ng/mL-1 μg/mL) which was included on the same plate. OVA-specific IgE absorbance was expressed relative to a reference OVA-immunized WT mouse which was selected prior to measurement. All ELISAs were performed blinded to treatment and genotype."}, "MLL-rearranged leukemia": {"system": "MLL-rearranged leukemia", "details": "in-vitro and in vivo; cited from earlier work"}, "[13]": {"details": "150 mg/kg on day 5, 8 and 10, assessed day 11"}, "[14]": {"details": "75 mg/kg, compared with vehicle"}, "[15]": {"details": "150 mg/kg oral gavage, each day of OVA challenge"}, "[16]": {"details": "after OVA challenge and GSK126 administration"}}, "note": "Entries after “also recorded” stand apart in the source; their conditions may differ.", "data": [{"molecule": "CCS(=O)(=O)N1CCC([C@@H](C)n2c(C)c(C(=O)NCc3c(OC)cc(C)[nH]c3=O)c3ccccc32)CC1", "note": "[CPI-169]", "values": [{"measurement": "antitumor activity and PD target engagement", "setting": "[1]", "result": "demonstrated antitumor activity and PD target engagement"}, {"measurement": "oral bioavailability", "setting": "[2]", "result": "limited oral bioavailability"}]}, {"molecule": "COc1cc(C)[nH]c(=O)c1CNC(=O)c1c(C)n([C@H](C)C2CCN(CC(F)(F)F)CC2)c2ccccc12", "note": "[CPI-1205]", "values": [{"measurement": "selectivity for EZH2 over EZH1", "setting": "EZH1 [3]", "result": "modest selectivity"}, {"measurement": "selectivity against 30 other histone or DNA methyltransferases", "setting": "[4]", "result": "selectivity"}, {"measurement": "oral bioavailability", "setting": "[2]", "result": "orally bioavailable"}]}, {"molecule": "CCC(CC)n1ccc2c(C(=O)NCc3c(C)cc(C)[nH]c3=O)cc(C#N)cc21", "note": "[EI1]", "values": [{"measurement": "H3K27 methylation and PRC2 target genes in treated cells", "setting": "H3K27 methylation", "result": "genome-wide loss of H3K27 methylation and activation of PRC2 target genes"}, {"measurement": "effect on lymphoma cells", "setting": "[5]", "result": "decreased proliferation, cell cycle arrest, and apoptosis"}]}, {"molecule": "Cc1cc(C)c(CNC(=O)c2cc(-c3ccc(CN4CCOCC4)cc3)cc3c2cnn3C2CCCC2)c(=O)[nH]1", "note": "[EPZ 005687]", "values": [{"measurement": "affinity and selectivity for EZH2", "setting": "[6]", "result": "high affinity and selectivity"}, {"measurement": "pharmacokinetic properties", "setting": "[2]", "result": "suboptimal"}]}, {"molecule": "CC[C@H](C)n1cc(C)c2c(C(=O)NCc3c(C)cc(C)[nH]c3=O)cc(-c3ccc(N4CCNCC4)nc3)cc21", "note": "[GSK126]", "values": [{"measurement": "increased potency compared to EZH1", "setting": "EZH1 [7]", "result": 150, "unit": "fold"}, {"measurement": "number of cells recovered in the culture compared to vehicle control", "setting": "[8]", "result": "dose-dependent effect"}, {"measurement": "growth of tumours", "setting": "tumours", "result": "suppress the growth of tumours"}, {"measurement": "BAL B cells", "setting": "[9]; [13]", "result": "significantly reduced"}, {"measurement": "BAL CD4+ T cells", "setting": "[9]; [13]", "result": "significantly reduced"}, {"measurement": "BAL eosinophils", "setting": "[9]; [13]", "result": "significantly reduced"}, {"measurement": "PAS+ mucous-producing cells", "setting": "[9]; [13]", "result": "reduced"}, {"measurement": "airway inflammation", "setting": "[9]; [13]", "result": "reduced"}, {"measurement": "total BAL cells", "setting": "[9]; [13]", "result": "significantly reduced"}, {"measurement": "lung inflammation levels (all groups)", "setting": "[9]; 7 days after final OVA challenge", "result": "statistically indistinguishable"}, {"measurement": "increased potency compared to 20 other methyltransferases", "setting": "[10]", "result": "> 1000", "unit": "fold"}, {"measurement": "BAL granulocyte numbers", "setting": "[11]", "result": "did not alter"}, {"measurement": "BAL CD4+ T cell numbers", "setting": "[11]; 150 mg/kg", "result": "reduced; also recorded: selectively reduces"}, {"measurement": "BAL cells", "setting": "[12]; [14]", "result": "no effect"}, {"measurement": "PAS staining", "setting": "[12]; [14]", "result": "no effect"}, {"measurement": "lung tissue inflammation", "setting": "[12]; [14]", "result": "no effect"}, {"measurement": "PAS+ mucous-producing epithelial cells", "setting": "[12]; 150 mg/kg", "result": "similarly reduced"}, {"measurement": "levels of inflammation in the lung tissue", "setting": "[12]; 150 mg/kg", "result": "similarly reduced"}, {"measurement": "BAL T cells", "setting": "[12]; [15]", "result": "dramatic reduction"}, {"measurement": "BAL eosinophils", "setting": "[12]; [15]", "result": "dramatic reduction"}, {"measurement": "BAL neutrophils", "setting": "[12]; [15]", "result": "dramatic reduction"}, {"measurement": "total BAL leukocytes", "setting": "[12]; [15]", "result": "dramatic reduction"}, {"measurement": "OVA-induced airway hyperresponsiveness", "setting": "[12]; 150 mg/kg, methacholine", "result": "complete protection"}, {"measurement": "OVA-specific IgE in serum", "setting": "[12]; [16]", "result": "unchanged"}, {"measurement": "total IgE in serum", "setting": "[12]; [16]", "result": "unchanged"}, {"measurement": "systemic effects", "setting": "[12]; mouse, in vivo", "result": "did not observe any systemic effects"}]}, {"molecule": "CCN(c1cc(-c2ccc(CN3CCOCC3)cc2)cc(C(=O)NCc2c(C)cc(C)[nH]c2=O)c1C)C1CCOCC1", "note": "[Tazemetostat]", "values": [{"measurement": "oral bioavailability", "setting": "[2]", "result": "orally bioavailable"}]}, {"molecule": "CCCc1cc(C)[nH]c(=O)c1CNC(=O)c1cc(-c2ccc(N3CCN(C(C)C)CC3)nc2)cc2c1cnn2C(C)C", "note": "[UNC 1999]", "values": [{"measurement": "growth of MLL-rearranged leukemia", "setting": "MLL-rearranged leukemia", "result": "inhibit growth"}]}]}
